Laboratory results: US7951807B2 (Abbott GmbH & Co. KG, priority 2004, dated 2011)
Where a name gives a salt, the structure may show the parent alone.

Molecular target: T1, human V1b receptors (Homo sapiens, UniProt P47901)
T1 construct: expressed in transfected cells
T1 sequence (P47901 1-424): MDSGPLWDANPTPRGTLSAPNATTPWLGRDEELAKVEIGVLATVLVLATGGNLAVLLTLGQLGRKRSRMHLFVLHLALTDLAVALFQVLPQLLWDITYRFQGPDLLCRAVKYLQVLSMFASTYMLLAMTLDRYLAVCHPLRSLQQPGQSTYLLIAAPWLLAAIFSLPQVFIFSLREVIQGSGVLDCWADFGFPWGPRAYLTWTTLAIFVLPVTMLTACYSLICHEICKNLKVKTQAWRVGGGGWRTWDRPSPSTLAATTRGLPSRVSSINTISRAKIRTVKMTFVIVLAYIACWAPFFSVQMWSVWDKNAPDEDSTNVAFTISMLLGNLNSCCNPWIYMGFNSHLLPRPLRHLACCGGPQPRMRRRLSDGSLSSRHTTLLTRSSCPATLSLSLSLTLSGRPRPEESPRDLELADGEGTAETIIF
Assay: Vasopressin V1b Receptor Binding Test
Conditions: membranes of CHO-K1 cells with stably expressed human V1b receptors, 3H-AVP displacement
Method: Vasopressin V1b Receptor Binding Test
(§1) The substances were dissolved in DMSO in a concentration of 10^−2 M and further diluted in DMSO to 10^−3 M to 10^−9 M. These DMSO solutions were diluted 1:10 with a test buffer. In the test batch, the substance concentration was again diluted 1:10.
The binding test was conducted according to the method of Tahara et al. (Tahara A. et al., Brit. J. Pharmacol. 125, 1463-1470 (1998)). In the test batch (0.250 ml), membranes (58 μg protein in an incubation buffer) of CHO-K1 cells were incubated with stably expressed human V1b receptors (preparation V1b-3H2, with protease inhibitors, Roche complete Mini # 1836170) with 1.5 nmol ^3H-AVP (8-Arg-Vasopressin, NET 800) in incubation buffer (50 mmol Tris, 10 mmol MgCl2, 0.1% BSA adjusted to pH 7.4 with HCl) (total binding) or additionally with increasing concentrations of the test substance (displacement experiment). The non-specific binding was determined with 10^−6 M AVP. Determinations were carried out three times.
Incubation buffer: 50 mmol tris, 10 mmol MgCl2, 0.1% BSA adjusted to pH 7.4 with HCl.
(§2) After incubation, 60 minutes at room temperature, the free radioligand was filtered off using vacuum filtration (Skatron cell harvester 7000) through Wathman GF/B fibreglass filters, and the filters were transferred to scintillation containers.
(§3) The liquid scintillation measurement was made in a Tricarb device, model 2000 or 2200CA (Packard). The conversion of the measured cpm into dpm was carried out with the help of a standard quench series.
(§4) The binding parameters were calculated using non-linear regression in SAS. The algorithms of the program work in a manner analogous to the LIGAND evaluation program (Munson P J und Rodbard D, Analytical Biochem. 107, 220-239 (1980)).

| SMILES | Ki [nM] |
| --- | --- |
| CCCOc1ccccc1C1(OC(=O)N2CCN(C3CCN(C)CC3)CC2)C(=O)N(S(=O)(=O)c2ccc(OC)cc2OC)c2ccc(OC)cc21 (stereo not drawn) [Example 2, 4-(1-Methyl-piperidine-4-yl)-piperazine-1-carboxylic acid-[1-(2,4-dimethoxy-benzenesulfonyl)-5-methoxy-2-oxo-3-(2-propoxyphenyl)-2,3-dihydro-1H-indole-3-yl] ester] | < 100 |
| COc1ccc(S(=O)(=O)N2C(=O)C(OC(=O)N3CCN(C4CCN(C)CC4)CC3)(c3ccccc3OC)c3cc(OC)ccc32)c(OC)c1 (stereo not drawn) [Example 6, 4-(1-Methyl-piperidine-4-yl)-piperazine-1-carboxylic acid-[1-(2,4-dimethoxy-benzenesulfonyl)-5-methoxy-2-oxo-3-(2-methoxyphenyl)-2,3-dihydro-1H-indole-3-yl] ester dihydrochloride] | < 100 |
| COc1ccc(S(=O)(=O)N2C(=O)C(OC(=O)N3CCN(C4CCN(C)CC4)CC3)(c3ccccc3OC)c3cc(F)ccc32)c(OC)c1 (stereo not drawn) [Example 10, 4-(1-Methyl-piperidine-4-yl)-piperazine-1-carboxylic acid-[1-(2,4-dimethoxy-benzenesulfonyl)-5-fluoro-2-oxo-3-(2-methoxyphenyl)-2,3-dihydro-1H-indole-3-yl] ester] | < 100 |

More lines, now with the values ahead:

| Ki [nM] | SMILES |
| --- | --- |
| < 100 | COc1ccc(S(=O)(=O)N2C(=O)C(NC(=O)N3CCN(C4CCN(C)CC4)CC3)(c3ccccc3OC)c3cc(OC)ccc32)c(OC)c1 (stereo not drawn) [Example 16, 4-(1-Methyl-piperidine-4-yl)-piperazine-1-carboxylic acid-[1-(2,4-dimethoxy-benzenesulfonyl)-5-methoxy-2-oxo-3-(2-methoxyphenyl)-2,3-dihydro-1H-indole-3-yl] amide dihydrochloride] |
| < 100 | COc1ccc(S(=O)(=O)N2C(=O)C(OC(=O)N3CCN(C4CCN(C)CC4)CC3)(c3ccccc3OC)c3cc(C)ccc32)c(OC)c1 (stereo not drawn) [Example 17, 4-(1-Methyl-piperidine-4-yl)-piperazine-1-carboxylic acid-[1-(2,4-dimethoxy-benzenesulfonyl)-5-methyl-2-oxo-3-(2-methoxyphenyl)-2,3-dihydro-1H-indole-3-yl] ester dihydrochloride] |
| < 100 | COc1ccc(S(=O)(=O)N2C(=O)C(OC(=O)N3CCN(C4CCN(C)CC4)CC3)(c3ccccc3OC)c3ccccc32)c(OC)c1 (stereo not drawn) [Example 23, 4-(1-Methyl-piperidine-4-yl)-piperazine-1-carboxylic acid-[1-(2,4-dimethoxy-benzenesulfonyl)-2-oxo-3-(2-methoxyphenyl)-2,3-dihydro-1H-indole-3-yl] ester dihydrochloride] |
| < 100 | COc1ccc(S(=O)(=O)N2C(=O)C(OC(=O)N3CCN(C4CCN(C)CC4)CC3)(c3ccccc3OC(C)C)c3cc(OC)ccc32)c(OC)c1 (stereo not drawn) [Example 24, 4-(1-Methyl-piperidine-4-yl)-piperazine-1-carboxylic acid-[1-(2,4-dimethoxy-benzenesulfonyl)-5-methoxy-2-oxo-3-(2-isopropoxyphenyl)-2,3-dihydro-1H-indole-3-yl] ester dihydrochloride] |
| < 100 | COc1ccc2c(c1)C(OC(=O)N1CCN(C3CCN(C)CC3)CC1)(c1ccccc1OC(C)C)C(=O)N2S(=O)(=O)c1ccc(C)cc1OC (stereo not drawn) [Example 26, 4-(1-Methyl-piperidine-4-yl)-piperazine-1-carboxylic acid-[1-(2-methoxy-4-methyl-benzene)-sulfonyl-5-methoxy-2-oxo-3-(2-isopropoxyphenyl)-2,3-dihydro-1H-indole-3-yl] ester dihydrochloride] |
| < 100 | CCOc1ccccc1C1(OC(=O)N2CCN(C3CCN(C)CC3)CC2)C(=O)N(S(=O)(=O)c2ccc(OC)cc2OC)c2ccc(OC)cc21 (stereo not drawn) [Example 30, 4-(1-Methyl-piperidine-4-yl)-piperazine-1-carboxylic acid-[1-(2,4-dimethoxy-benzenesulfonyl)-5-methoxy-2-oxo-3-(2-ethoxyphenyl)-2,3-dihydro-1H-indole-3-yl] ester dihydrochloride] |

Molecular target: T2, human V1a receptors (Homo sapiens)
T2 construct: expressed in transfected cells
Assay: Vasopressin V1a Receptor Binding Test
Conditions: membranes of CHO cells with stably expressed human V1a receptors, 125 iodine AVP displacement
Method: Vasopressin V1a Receptor Binding Test
as §1
The binding test was conducted according to the method of Tahara et al. (Tahara A. et al., Brit. J. Pharmacol. 125, 1463-1470 (1998)). In the test batch (0.250 ml), membranes (50 μg protein in an incubation buffer (50 mmol tris, 10 mmol MgCl2, 0.1% BSA adjusted to pH 7.4 with HCl)) of CHO cells were incubated with stably expressed human V1a receptors (preparation V1a clone 5.0, with protease inhibitors, Roche complete Mini # 1836170) with 0.04 nmol 125 iodine AVP (NEX128) in the incubation buffer (total binding) or additionally with increasing concentrations of the test substance (displacement experiment). The non-specific binding was determined with 10^−6 M AVP. Determinations were carried out three times.
as §2, §3, §4

| Ki [nM] | SMILES |
| --- | --- |
| < 100 | COc1ccc(S(=O)(=O)N2C(=O)C(NC(=O)N3CCN(C4CCN(C)CC4)CC3)(c3ccccc3OC)c3cc(Cl)ccc32)c(OC)c1 (stereo not drawn) [Example 3, 4-(1-Methyl-piperidine-4-yl)-piperazine-1-carboxylic acid-[1-(2,4-dimethoxy-benzenesulfonyl)-5-chloro-2-oxo-3-(2-methoxyphenyl)-2,3-dihydro-1H-indole-3-yl] amide dihydrochloride] |
| < 100 | CN1CCC(N2CCN(C(=O)OC3(c4ccccc4)C(=O)N(S(=O)(=O)c4ccccc4)c4ccc(Cl)cc43)CC2)CC1 (stereo not drawn) [Example 4, 4-(1-Methyl-piperidine-4-yl)-piperazine-1-carboxylic acid-[1-benzenesulfonyl-5-chloro-2-oxo-3-phenyl-2,3-dihydro-1H-indole-3-yl] ester dihydrochloride] |
| < 100 | CN1CCN(C2CCN(C(=O)OC3(c4ccccc4)C(=O)N(S(=O)(=O)c4ccccc4)c4ccc(Cl)cc43)CC2)CC1 (stereo not drawn) [Example 5, 4-(4-Methyl-piperazine-1-yl)-piperidine-1-carboxylic acid-[1-benzenesulfonyl-5-chloro-2-oxo-3-phenyl-2,3-dihydro-1H-indole-3-yl] ester] |
| < 100 | COc1ccc(S(=O)(=O)N2C(=O)C(OC(=O)N3CCN(C4CCN(C)CC4)CC3)(c3ccccc3C)c3cc(OC)ccc32)c(OC)c1 (stereo not drawn) [Example 8, 4-(1-Methyl-piperidine-4-yl)-piperazine-1-carboxylic acid-[1-(2,4-dimethoxy-benzenesulfonyl)-5-methoxy-2-oxo-3-(2-methylphenyl)-2,3-dihydro-1H-indole-3-yl] ester dihydrochloride] |
| < 100 | COc1ccc(S(=O)(=O)N2C(=O)C(OC(=O)N3CCN(C4CCN(Cc5ccccc5)CC4)CC3)(c3ccccc3OC)c3cc(OC)ccc32)c(OC)c1 (stereo not drawn) [Example 13, 4-(1-Benzyl-piperidine-4-yl)-piperazine-1-carboxylic acid-[1-(2,4-dimethoxy-benzenesulfonyl)-5-methoxy-2-oxo-3-(2-methoxyphenyl)-2,3-dihydro-1H-indole-3-yl] ester] |

| SMILES | Ki [nM] |
| --- | --- |
| COc1ccccc1C1(OC(=O)N2CCN(C3CCN(C)CC3)CC2)C(=O)N(S(=O)(=O)c2ccccc2)c2ccc(Cl)cc21 (stereo not drawn) [Example 1] | < 100 |
